Test results published in patent US20220202895A1, “PULSATIVE GNRH ADMINISTRATION FOR TREATING COGNITIVE DISORDERS” (INSERM (Institut National de la Santé et de la Recherche …, priority 2019, published 2022).
Entries after “also recorded” stand apart in the source; their conditions may differ.

Columns and labels:
[1] = system: GnRH-R expressing neurons of Gnrhr::Cre mice injected with hM4D(Gi) DREADD viral vector; settings: mouse, in vivo, 3 mg/kg
[2] = system: GnRH-R expressing neurons of Gnrhr::Cre mice injected with hM4D(Gi) DREADD viral vector; settings: mouse, in vivo, 3 mg/kg; remark: listed apart in the source
wild-type mice [3] = settings: mouse, in vivo
Experimental: Habituation/dishabituation test. The habituation/dishabituation test was used to assess the ability to differentiate between different odours (Breton-Provencher et al., 2009). Mice were single-housed for 8 days prior to testing. This olfactory test included a presentation of acetophenone (00790, Sigma) for habituation and octantal (05608, Sigma) for dishabituation, or vice versa. Before the test, mice were allowed to explore the open-field area and an empty odour box for 30 min. After this habituation period, mice were sequentially presented with one odour for four consecutive trials for a duration of 1 min, and an inter-trial interval of 10 min was maintained to ensure the replacement of the odour. After four consecutive trials, a second odour was presented during a 1 min trial. Odours (20 μl of 1:1000 dilution) were administered on a filter paper and placed in a perforated plastic box to avoid direct contact with the odour stimulus. The measurement consisted of recording the total amount of time the mouse spent sniffing the object during different trials.

wild-type mice [4] = experiment: LH pulsatility by serial tail blood sampling and LH ELISA; assay type: in vivo, mouse; settings: continuous subcutaneous infusion by osmotic pump, 15 days
Experimental: LH assays: LH levels were determined by the previously described sensitive LH sandwich ELISA (Steyn et al., 2013). A 96-well high-affinity binding microplate (Corning) was coated with 50 μL of capture antibody (monoclonal antibody, anti-bovine LHβ subunit, 518B7; L. Sibley; University of California, UC Davis) at a final dilution of 1:1,000 (in 0.1M Na2CO3/NaHCO3, pH 9.6) and incubated overnight at 4° C. Wells were incubated with 200 μL blocking buffer (5% (w/v) skimmed milk powder in 1×PBS-T pH 7.4 (0.1 M PBS, 0.05% Tween 20 (Sigma #P9416)) for 2 hours at room temperature (RT). A standard curve was generated using a twofold serial dilution of mouse LH (reference preparation, AFP-5306A; National Institute of Diabetes and Digestive and Kidney Diseases National Hormone and Pituitary Program (NIDDK-NHPP)) in 1% (w/v) BSA (Sigma, A9418) in 1×PBS-T. The LH standards and blood samples were incubated with 50 μL of detection antibody (rabbit LH antiserum, AFP240580Rb; NIDDK-NHPP) at a final dilution of 1:10,000 for 1.5 hours at RT. […] The reaction was stopped by the addition of 50 μL of 3M HCl to each well, and the absorbance was measured at 450 nm.
Adult mice were habituated with daily handling. […] LH levels were then determined using the protocol described before. […]

wild-type mice [5] = settings: mouse, in vivo; remark: listed apart in the source
Experimental: Novel object recognition test. Recognition memory was assessed using the novel object recognition test (Leger et al., 2013). Mice were single-housed for 5 days prior to testing. On day 1, two identical objects (A+A) were placed within the open-field arena on opposite sides of the cage, equidistant from the cage walls. Each mouse was placed within the two objects and allowed to explore them for 15 min. Day 2 consisted of two phases, a familiarization and a test phase. During the familiarization phase (trial 1) that lasted 15 min, mice explored two other identical objects (B+B). After this phase, mice were placed back in its home cage for 1 hour before starting the test phase. During the test phase, one object from trial 1 and a completely new object (B+C) were placed within the open-field area and mice were allowed to explore them for 5 min (trial 2). The object recognition score was calculated as the time spent exploring the new object (trial 2) over the total exploration time, and is used to represent recognition memory function. […]

Molecule | cognitive performance [1] | olfactory performance (ability to discriminate between different odors) [2] | olfactory performance (wild-type mice [3]) | LH pulsatility (pulse frequency and amplitude) (wild-type mice [4]) | cognitive performance (wild-type mice [5])
C[N+]1([O-])CCN(C2=Nc3cc(Cl)ccc3Nc3ccccc32)CC1 [CNO, clozapine-n-oxide] | dramatically reduced; also recorded: impaired | dramatically reduced; also recorded: impaired |  |  | 
LUTRELEF®: a GnRH peptide of clinic use to restore fertility in patients with hypogonadotropic hypogonadism; GnRH acetate/diacetate (gonadorelin), Ferring Pharmaceuticals |  |  | marked deleterious effects | prevented; also recorded: blunted LH pulsatility | marked deleterious effects
